Measurements: patent publication US20260000082A1, “STABILIZED LIQUID HERBICIDE FORMULATION OF HIGH-LOAD PYRASULFOTOLE” (ADAMA AGAN LTD., priority 2022, published 2026)

Experiment: Solubility of Pyrasulfotole in solvents with and without organic amine at room temp (24° C.)
Assay type: physicochemical
Details: for increase of solubility: 24° C.
Protocol: Some of the results are tabulated as follows:
Solubility of Pyrasulfotole in Dimethyl sulfoxide (DMSO) and in a mixture of Pyrasulfotole with DMSO and amine at room temp (24° C.) was tested.
Solubility of Pyrasulfotole in Cyclohexanone and in a mixture of Pyrasulfotole with Cyclohexanone and amine at room temp (24° C.) was tested.
Solubility of Pyrasulfotole in Propylene carbonate and in a mixture of Pyrasulfotole with Propylene carbonate and amine at room temp (24° C.) was tested.

Cc1nn(C)c(O)c1C(=O)c1ccc(C(F)(F)F)cc1S(C)(=O)=O [Pyrasulfotole]
increase of solubility (Cyclohexanone/Genamin C-50 66/34 versus Cyclohexanone alone): about 400%
increase of solubility (DMSO/GENAMIN C-50 66/34 versus DMSO alone): about 26%
increase of solubility (Propylene carbonate/Genamin C-50 70/30 versus Propylene carbonate alone): about 620%
Solubility (%) (solvent Cyclohexanone, rate 100, room temp (24° C.)): 8.24%
Solubility (%) (solvent Cyclohexanone/Genamin C-50, rate 66/34, room temp (24° C.)): 32.99%
Solubility (%) (solvent DMSO, rate 100, room temp (24° C.)): 26.98%
Solubility (%) (solvent DMSO/GENAMIN C-50, rate 66/34, room temp (24° C.)): 39.24%
Solubility (%) (solvent Propylene carbonate, rate 100, room temp (24° C.)): 4.59%
Solubility (%) (solvent Propylene carbonate/Genamin C-50, rate 70/30, room temp (24° C.)): 28.57%
